Experimental data reported in patent publication US20240025856A1, “1,2,3,4-TETRAHYDROQUINOLINE DERIVATIVES AS INHIBITORS OF THE YAP/TAZ-TEAD ACTIVATION FOR TREATING CANCER” (KATHOLIEKE UNIVERSITEIT LEUVEN, priority 2020, published 2024).

System: YAP/TAZ-TEAD transcription
Test: Reporter gene assay for measuring the inhibition of YAP/TAZ-TEAD transcription (TEAD-responsive element luciferase reporter in Hek293T cells)
Assay type: cell-based
Conditions: Hek293T cells transiently transfected with TEAD-responsive element luciferase reporter, 24 hours incubation
Method: Hek293T cells are cultured in DMEM supplemented with 10% fetal bovine serum, Sodium pyruvate, Sodium bicarbonate, L-glutamine. The cells are harvested and transiently transfected with TEAD-responsive element luciferase reporter. Transfected cells are plated in 384-wells plate containing pre-diluted compounds. After 24 hours incubation at 37° C./5% CO2, assay plates were cooled down to RT and levelled to an equal volume per well, prior to the addition of 25 uL luciferase substrate SteadyLite (Perkin Elmer)/well. The plate was shaken for 10 min at 600 rpm, centrifuged for 1 min at 500 rpm and measured with an Envision reader (PerkinElmer). The amount of relative light units produced by the TEAD reporter is used to calculated percent of inhibition. The percent of reporter inhibition was calculated in the presence of a positive control inhibitor (100% inhibition) versus a condition with the presence of the vehicle basal activity of the reporter (0% inhibition). The ability of a test compound to inhibit this activity was determined as: Percentage inhibition=[[…]((RLU determined in the presence of vehicle−RLU determined for sample with test compound present) divided by (RLU determined in the presence of vehicle−RLU determined for sample with positive control inhibitor))]*100
The activities of example compounds tested are depicted in the table below. The activity ranges A, B and C refer to IC50 values in the reporter gene assay as follows: “A”: IC50<1 μM; “B”: 1 μM≤IC50≤20 μM and “C”: IC50>20 μM; NT=not tested.

SMILES | IC50 | IC50 (Homo sapiens, HEK-293T, 24 h)
C=CC(=O)NCC1Cc2c(CC(=O)O)cccc2N(c2ccc(C(F)(F)F)cc2)C1 (stereo not shown) [Cpd. No. 161-En1, 2-(3-(acrylamidomethyl)-1-(4-(trifluoromethyl)phenyl)-1,2,3,4-tetrahydroquinolin-5-yl)acetic acid] | > 20000 nM | 
OCCNC1Cc2ccccc2N(c2ccc(C(F)(F)F)cc2)C1 (single isomer, unassigned) [043-En2, (R)- or (S)-2-((1-(4-(trifluoromethyl)phenyl)-1,2,3,4-tetrahydroquinolin-3-yl)amino)ethan-1-ol] | < 1000 nM | 
C=CC(=O)NCC1Cc2ccccc2N(c2ccc(C(F)(F)F)cc2)C1 (single isomer, unassigned) [084-En2, N-((1-(4-(trifluoromethyl)phenyl)-1,2,3,4-tetrahydroquinolin-3-yl)methyl)acrylamide] |  | < 1000 nM
C=CC(=O)NCC1CCc2ccccc2N1Cc1cccc(C(F)(F)F)c1 (stereo not shown) [compound 190, N-((1-(3-(trifluoromethyl)benzyl)-1,2,3,4-tetrahydroquinolin-2-yl)methyl)acrylamide] |  | < 1000 nM
C=CS(=O)(=O)NCC1Cc2ccccc2N(c2ccc(C(F)(F)F)cc2)C1 (stereo not shown) [compound 122, N-((1-(4-(trifluoromethyl)phenyl)-1,2,3,4-tetrahydroquinolin-3-yl)methyl)ethenesulfonamide] |  | < 1000 nM
C=CC(=O)NC1Cc2ccccc2N(C(=O)c2ccccc2)C1 (stereo not shown) [compound 172, N-(1-benzoyl-1,2,3,4-tetrahydroquinolin-3-yl)acrylamide] |  | > 20000 nM
C=CC(=O)NC1Cc2ccccc2N(c2ccc(OC(F)F)cc2)C1 (stereo not shown) [compound 022, N-(1-(4-(difluoromethoxy)phenyl)-1,2,3,4-tetrahydroquinolin-3-yl)acrylamide] |  | < 1000 nM
C=CC(=O)NCC1Cc2ccccc2N(c2ccc(C(=O)NC)cc2)C1 (stereo not shown) [compound 100, 4-(3-(acrylamidomethyl)-3,4-dihydroquinolin-1(2H)-yl)—N-methylbenzamide] |  | > 20000 nM
C=CC(=O)NCC1Cc2ccccc2N(c2ccc(F)c(F)c2)C1 (stereo not shown) [compound 101, N-((1-(3,4-difluorophenyl)-1,2,3,4-tetrahydroquinolin-3-yl)methyl)acrylamide] |  | < 1000 nM
CCC(=O)NCC1Cc2c(Cc3ccccc3)cccc2N(c2ccc(C(F)(F)F)cc2)C1 (stereo not shown) [compound 130, N-((5-benzyl-1-(4-(trifluoromethyl)phenyl)-1,2,3,4-tetrahydroquinolin-3-yl)methyl)propionamide] |  | < 1000 nM
C=CC(=O)NCC1Cc2c(C(=O)NS(=O)(=O)C3CC3)cccc2N(c2ccc(C(F)(F)F)cc2)C1 (stereo not shown) [Cpd. No. 158, 3-(acrylamidomethyl)—N-(cyclopropylsulfonyl)-1-(4-(trifluoromethyl)phenyl)-1,2,3,4-tetrahydroquinoline-5-carboxamide] |  | > 20000 nM
C=CC(=O)NCC1Cc2ccccc2N(c2ccc(F)cc2)C1 (stereo not shown) [compound 097, N-((1-(4-fluorophenyl)-1,2,3,4-tetrahydroquinolin-3-yl)methyl)acrylamide] |  | < 1000 nM
OCCNC1Cc2ccccc2N(c2ccc(C(F)(F)F)cc2)C1 (single isomer, unassigned) [043-En1, (R)- or (S)-2-((1-(4-(trifluoromethyl)phenyl)-1,2,3,4-tetrahydroquinolin-3-yl)amino)ethan-1-ol] | 1000 to 20000 nM | 
C=CC(=O)NC1Cc2ccccc2N(C2CCCCC2)C1 (stereo not shown) [compound 013, N-(1-cyclohexyl-1,2,3,4-tetrahydroquinolin-3-yl)acrylamide] |  | < 1000 nM
C=CC(=O)NC1Cc2cnccc2N(c2ccc(C(F)(F)F)cc2)C1 (stereo not shown) [compound 082, N-(1-(4-(trifluoromethyl)phenyl)-1,2,3,4-tetrahydro-1,6-naphthyridin-3-yl)acrylamide] |  | 1000 to 20000 nM
C=CC(=O)NC1Cc2ccccc2N(c2ccc(F)cc2F)C1 (stereo not shown) [compound 036, N-(1-(2,4-difluorophenyl)-1,2,3,4-tetrahydroquinolin-3-yl)acrylamide] |  | < 1000 nM
C=CC(=O)NCC1Cc2c(-c3noc(=O)[nH]3)cccc2N(c2ccc(C(F)(F)F)cc2)C1 (stereo not shown) [compound 167, N-((5-(5-oxo-4,5-dihydro-1,2,4-oxadiazol-3-yl)-1-(4-(trifluoromethyl)phenyl)-1,2,3,4-tetrahydroquinolin-3-yl)methyl)acrylamide] |  | > 20000 nM
O=S1(=O)CCN1CC1Cc2ccccc2N(c2ccc(C(F)(F)F)cc2)C1 (stereo not shown) [compound 123, 2-((1-(4-(trifluoromethyl)phenyl)-1,2,3,4-tetrahydroquinolin-3-yl)methyl)-1,2-thiazetidine-1,1-dioxide] |  | < 1000 nM
C=CC(=O)NCC1Cc2ccccc2N(c2cnc(C(F)(F)F)nc2)C1 (stereo not shown) [compound 115, N-((1-(2-(trifluoromethyl)pyrimidin-5-yl)-1,2,3,4-tetrahydroquinolin-3-yl)methyl)acrylamide] |  | < 1000 nM

SMILES | IC50 | IC50 (Homo sapiens, HEK-293T, 24 h)
FC(F)(F)c1ccc(N2CC(C3CC(Br)=NO3)Cc3ccccc32)cc1 (single isomer, unassigned) [Cpd. No. 194(Dia2)-En1, 3-bromo-5-(1-(4-(trifluoromethyl)phenyl)-1,2,3,4-tetrahydroquinolin-3-yl)-4,5-dihydroisoxazole] | 1000 to 20000 nM | 
C=CC(=O)NC1Cc2nc(OC)ccc2N(c2ccc(C(F)(F)F)cc2)C1 (stereo not shown) [Cpd. No. 141, N-(6-methoxy-1-(4-(trifluoromethyl)phenyl)-1,2,3,4-tetrahydro-1,5-naphthyridin-3-yl)acrylamide] |  | < 1000 nM
CCC(=O)NCC1Cc2ccccc2N(c2ccc(C(F)(F)F)cc2)C1 (stereo not shown) [compound 098, N-((1-(4-(trifluoromethyl)phenyl)-1,2,3,4-tetrahydroquinolin-3-yl)methyl)propionamide] |  | < 1000 nM
C=CC(=O)NCC1Cc2c(Cc3noc(=O)[nH]3)cccc2N(c2ccc(C(F)(F)F)cc2)C1 (stereo not shown) [Cpd. No. 168-En1, N-((5-((5-oxo-4,5-dihydro-1,2,4-oxadiazol-3-yl)methyl)-1-(4-(trifluoromethyl)phenyl)-1,2,3,4-tetrahydroquinolin-3-yl)methyl)acrylamide] | 1000 to 20000 nM | 
C=CC(=O)NC1Cc2c(C(=O)NC#N)cccc2N(c2ccc(C(F)(F)F)cc2)C1 (stereo not shown) [Cpd. No. 169, 3-acrylamido-N-cyano-1-(4-(trifluoromethyl)phenyl)-1,2,3,4-tetrahydroquinoline-5-carboxamide] |  | > 20000 nM
C=CC(=O)N(CCOC)CC1Cc2ccccc2N(c2ccc(C(F)(F)F)cc2)C1 (stereo not shown) [compound 135, N-(2-methoxyethyl)-N-((1-(4-(trifluoromethyl)phenyl)-1,2,3,4-tetrahydroquinolin-3-yl)methyl)acrylamide] |  | < 1000 nM
C=CC(=O)NC1Cc2ccccc2N(c2cccc(F)c2)C1 (stereo not shown) [compound 024, N-(1-(3-fluorophenyl)-1,2,3,4-tetrahydroquinolin-3-yl)acrylamide] |  | < 1000 nM
C=CC(=O)NCC1Cc2ccccc2N(c2cccc(C(C)C)c2)C1 (stereo not shown) [compound 088, N-((1-(3-isopropylphenyl)-1,2,3,4-tetrahydroquinolin-3-yl)methyl)acrylamide] |  | < 1000 nM
CC(=O)NC/C=C/C(=O)NCC1Cc2ccccc2N(c2ccc(C(F)(F)F)cc2)C1 (stereo not shown) [Cpd. No. 193, (E)-4-acetamido-N-((1-(4-(trifluoromethyl)phenyl)-1,2,3,4-tetrahydroquinolin-3-yl)methyl)but-2-enamide] |  | < 1000 nM
CCC(=O)NCC1CCc2ccccc2N1c1ccc(C(F)(F)F)cc1 (stereo not shown) [compound 188, N-((1-(4-(trifluoromethyl)phenyl)-1,2,3,4-tetrahydroquinolin-2-yl)methyl)propionamide] |  | > 20000 nM
C=CC(=O)N(C)C1Cc2ccccc2N(c2ccc(C(F)(F)F)cc2)C1 (stereo not shown) [compound 132, N-methyl-N-(1-(4-(trifluoromethyl)phenyl)-1,2,3,4-tetrahydroquinolin-3-yl)acrylamide] |  | < 1000 nM
C=CC(=O)NCC1Cc2ccccc2N(c2ccc(C(F)(F)F)cn2)C1 (stereo not shown) [compound 095] |  | < 1000 nM
C=CC(=O)NCC1Cc2ccccc2N(c2ccc(Cl)cc2)C1 (stereo not shown) [compound 089, N-((1-(4-chlorophenyl)-1,2,3,4-tetrahydroquinolin-3-yl)methyl)acrylamide] |  | < 1000 nM
C=CC(=O)NCC1Cc2ccccc2N(c2cc(F)ccc2F)C1 (stereo not shown) [compound 110, N-((1-(2,5-difluorophenyl)-1,2,3,4-tetrahydroquinolin-3-yl)methyl)acrylamide] |  | < 1000 nM
C=CC(=O)NC1Cc2c(NC(=O)OC(C)(C)C)cccc2N(c2ccc(C(F)(F)F)cc2)C1 (stereo not shown) [compound 074, tert-butyl (3-acrylamido-1-(4-(trifluoromethyl)phenyl)-1,2,3,4-tetrahydroquinolin-5-yl)carbamate] |  | < 1000 nM
CC(C)=CC(=O)NC1Cc2ccccc2N(c2ccc(C(F)(F)F)cc2)C1 (stereo not shown) [compound 038, 3-methyl-N-(1-(4-(trifluoromethyl)phenyl)-1,2,3,4-tetrahydroquinolin-3-yl)but-2-enamide] |  | 1000 to 20000 nM
C=CC(=O)NC1Cc2ccccc2N(CC2CCCCC2)C1 (stereo not shown) [Cpd. No. 175, N-(1-(cyclohexylmethyl)-1,2,3,4-tetrahydroquinolin-3-yl)acrylamide] |  | < 1000 nM
C=CC(=O)NCC1Cc2ccccc2N(c2cccc(F)c2)C1 (stereo not shown) [compound 108, N-((1-(3-fluorophenyl)-1,2,3,4-tetrahydroquinolin-3-yl)methyl)acrylamide] |  | < 1000 nM
